In patent publication US10208071B2, “Use of agonists of formyl peptide receptor 2 for treating ocular inflammatory diseases” (Allergan, Inc., priority 2013, dated 2019):

Molecular target: FPR2 (Homo sapiens (Human), UniProt P25090)
Assay: FLIPR Ca+2 response, HEK-Gα16 cells stably expressing the human FPR2 receptor (Table 4)
Type: cell-based
Conditions: for FPR2 (efficacy): efficacy in parentheses
In short: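 HEK-Gα16 cells stably expressing human FPR2, loaded with 2 μM Fluo-4 in HBSS/20 mM HEPES for 40 min at 37° C., then washed. Ligands added in HBSS/Hepes and Ca+2 responses recorded on FLIPR in relative fluorescence units.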

Sequence of FPR2 (P25090 whole entry): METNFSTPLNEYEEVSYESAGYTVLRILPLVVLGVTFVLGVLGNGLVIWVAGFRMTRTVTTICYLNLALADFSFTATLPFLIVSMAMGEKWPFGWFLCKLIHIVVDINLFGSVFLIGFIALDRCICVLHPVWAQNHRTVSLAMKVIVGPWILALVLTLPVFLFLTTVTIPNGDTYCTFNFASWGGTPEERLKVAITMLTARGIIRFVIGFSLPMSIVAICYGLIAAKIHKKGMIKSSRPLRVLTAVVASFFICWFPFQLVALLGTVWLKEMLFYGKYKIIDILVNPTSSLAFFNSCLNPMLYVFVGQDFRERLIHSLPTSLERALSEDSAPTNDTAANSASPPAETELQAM

SMILES	EC50	FPR2 (efficacy)
CC1(CCc2ccccc2F)NC(=O)N(NC(=O)Nc2ccc(Br)cc2)C1=O (stereo not drawn) [Compound 80, 1-(4-bromophenyl)-3-{4-[2-(2-fluorophenyl)ethyl]-4-methyl-2,5-dioxoimidazolidin-1-yl}urea]	14.3 nM	nM (99)
CCC[C@H](NC(=O)Nc1ccc(Br)cc1F)C(=O)NCC(N)=O [Compound 81, (2S)-N-(2-amino-2-oxoethyl)-2-{[(4-bromo-2-fluorophenyl)carbamoyl]amino} pentanamide]	–	nM (0.96)
CC1(CCc2ccc(F)cc2)NC(=O)N(NC(=O)Nc2ccc(Br)cc2)C1=O (stereo not drawn) [Compound 82, 1-(4-bromophenyl)-3-{4-[2-(4-fluorophenyl)ethyl]-4-methyl-2,5-dioxoimidazolidin-1-yl}urea]	16.3 nM	nM (1.0)
CC1(CCc2cccc(F)c2)NC(=O)N(NC(=O)Nc2ccc(Br)cc2)C1=O (stereo not drawn) [Compound 83, 1-(4-bromophenyl)-3-{4-[2-(3-fluorophenyl)ethyl]-4-methyl-2,5-dioxoimidazolidin-1-yl}urea]	–	nM (1.0)
CC(C)C[C@H](NC(=O)Nc1ccc(Br)cc1F)C(=O)NCC(N)=O [Compound 84, (2S)-N-(2-amino-2-oxoethyl)-2-{[(4-bromo-2-fluorophenyl)carbamoyl]amino}-4-methylpentanamide]	4.5 nM	nM (0.95)
CC(=O)CNC(=O)[C@H](CC(C)C)NC(=O)Nc1ccc(Br)cc1F [Compound 85, (2S)-2-{[(4-bromo-2-fluorophenyl)carbamoyl]amino}-4-methyl-N-(2-oxopropyl)pentanamide]	–	nM (0.99)
CC(C)C[C@H](NC(=O)Nc1ccc(Br)cc1F)C(=O)N[C@@H](C)C(=O)O [Compound 87, (2S)-2-{[(2S)-2-{[(4-bromo-2-fluorophenyl)carbamoyl]amino}-4-methylpentanoyl]amino} propanoic acid]	12.1 nM	nM (0.95)

Further lines, results first:

EC50	FPR2 (efficacy)	SMILES
–	nM (0.94)	CC1(CCc2cccs2)NC(=O)N(NC(=O)Nc2ccc(Br)cc2)C1=O (stereo not drawn) [Compound 88, 1-(4-bromophenyl)-3-{4-methyl-2,5-dioxo-4-[2-(thiophen-2-yl)ethyl]imidazolidin-1-yl}urea]
–	nM (0.85)	CC1(CCc2ccc(O)cc2)NC(=O)N(NC(=O)Nc2ccc(Br)cc2F)C1=O (stereo not drawn) [Compound 89, 1-(4-bromo-2-fluorophenyl)-3-{4-[2-(4-hydroxyphenyl)ethyl]-4-methyl-2,5-dioxoimidazolidin-1-yl}urea]
11.6 nM	nM (1.0)	CC(C)C[C@H](NC(=O)Nc1ccc(Br)cc1)C(=O)N[C@@H](C)C(=O)O [Compound 90, (2S)-2-{[(2S)-2-{[(4-bromophenyl)carbamoyl]amino}-4-methylpentanoyl]amino} propanoic acid]
1.7 nM	nM (0.97)	CC(C)C[C@H](NC(=O)Nc1ccc(Br)cc1)C(=O)N[C@H](C(=O)O)C(C)C [Compound 91, (2S)-2-{[(2S)-2-{[(4-bromophenyl)carbamoyl]amino}-4-methylpentanoyl]amino}-3-methylbutanoic acid]
5.8 nM	nM (1.0)	CC(C)C[C@H](NC(=O)Nc1ccc(Br)cc1)C(=O)N[C@H](C(N)=O)C(C)C [Compound 92, (2S)-N-[(2S)-1-amino-3-methyl-1-oxobutan-2-yl]-2-{[(4-bromophenyl)carbamoyl]amino}-4-methylpentanamide]
2.5 nM	nM (0.93)	CC(C)C[C@H](NC(=O)Nc1ccc(Br)cc1)C(=O)NCC(C)(C)O [Compound 93, (2S)-2-{[(4-bromophenyl)carbamoyl]amino}-N-(2-hydroxy-2-methylpropyl)-4-methylpentanamide]
